Consider 77 sequences from the supplement of paper PMC11208160.
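Note: IS621 recombinase and bridge RNA in Escherichia coli cells.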

The nature of the data set: recombinant barcode read abundance after kanamycin selection (control-corrected) (log10(CPM+1)); higher = more efficient recombination; sequences stand for … in AGTGCAGAGAAAATCGGCCAGTTTTCTCTGCCTGCAGTCCGCATGCCGT…AGATTTATGCAGCGGACTGCCTTTCTCCCAAAGTGATAAACCGGACAGTATCATGGACCGGTTTTCCCGGTAATCCGTATTTGCAAGGTTGGTTTCACT; site = the 11-nt target. Summed up: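 Recombination efficiency draws on barcodes counted at recombinant junctions in a pooled E. coli screen of targets paired with IS621 bridge RNA target-binding loops. The counts were converted to counts per million, averaged and corrected against the chloramphenicol/ampicillin LB agar control, then reported as log10(CPM+1). Selection plates held chloramphenicol/ampicillin/kanamycin with 0.1 mM IPTG, with two replicates per condition.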
As to “GCAGGGACTTGGGTTCTAACCTGTTGCCT (site GAAGGGACTAG)”, the “recombinant barcode read abundance (log10)” value turned out to be 0.56.
Then “GCAGGGACTTGGGTTCTAACCTGTTGCCT (site GCAGGGACTAG)”, with 1.9; and “GCAGGGACTTGGGTTCTAACCTGTTGCCT (site GGAGGGACTAG)”, with 0.313; and “GCAGGGACTTGGGTTCTAACCTGTTGCCT (site GTAGGGACTAG)”, with 1.02.
“GCAGGTACTTGGGTTCTAACCTGTTGCCT (site ACAGGTACTAG)”: the “recombinant barcode read abundance (log10)” value is 0.508.
“GCAGGTACTTGGGTTCTAACCTGTTGCCT (site CCAGGTACTAG)”: the “recombinant barcode read abundance (log10)” value was 0.401.
The figure for “GCAGGTACTTGGGTTCTAACCTGTTGCCT (site GCAGGTACTAG)” is 1.17; for “GCAGGTACTTGGGTTCTAACCTGTTGCCT (site TCAGGTACTAG)” it is 0.466.
As to “GCAGGTGCTTGGGTTCTAACCTGTTGCTT (site ATTTCGACTCC)”, the “recombinant barcode read abundance (log10)” value was found to be 0.0721.
“GCAGGTGCTTGGGTTCTAACCTGTTGCTT (site GCAGGTGCTAA)”: the “recombinant barcode read abundance (log10)” value worked out at 1.75.
On to “GCATACACTTGGGTTCTAACCTGTTGCCA (site GCATACACTTG)”, for which the “recombinant barcode read abundance (log10)” value is 1.48.
As to “GCATACACTTGGGTTCTAACCTGTTGCCA (site TGCAGGGCTCC)”, the “recombinant barcode read abundance (log10)” value was 0.0903.
The figure for “GCATCTACTTGGGTTCTAACCTGTTGCTA (site CATAACGCTAG)” is 0.185; for “GCATCTACTTGGGTTCTAACCTGTTGCTA (site GCATCTACTTA)” it is 0.0861.
As for “GCCAAACCTTGGGTTCTAACCTGTTGCTA (site GCCAAACCTTA)”, the “recombinant barcode read abundance (log10)” value is 0.0929.
Then “GCCAAACCTTGGGTTCTAACCTGTTGCTA (site GTCAAGCCTTA)”, with 0.176; and “GCCAGACCTTGGGTTCTAACCTGTTGCCT (site GCCAAACCTAG)”, with 0.0596; and “GCCAGACCTTGGGTTCTAACCTGTTGCCT (site GCCACACCTAG)”, with 0.0708.
Then “GCCAGACCTTGGGTTCTAACCTGTTGCCT (site GCCAGACCTAG)”, with 0.373; and “GCCAGACCTTGGGTTCTAACCTGTTGCCT (site GCCATACCTAG)”, with 0.112; and “GCCAGCTCTTGGGTTCTAACCTGTTGCTG (site CAATTTCCTAT)”, with 0.169.
“GCCAGCTCTTGGGTTCTAACCTGTTGCTG (site GCCAGCTCTCA)”: the “recombinant barcode read abundance (log10)” value worked out at 0.581.
The figure for “GCCATAACTTGGGTTCTAACCTGTTGCCT (site GCCATAACTAG)” is 0.0347; for “GCCATAACTTGGGTTCTAACCTGTTGCCT (site GCCATCACTAG)” it is 0.0218.
Then “GCCATAACTTGGGTTCTAACCTGTTGCCT (site GCCATGACTAG)”, with 0.256; and “GCCATAACTTGGGTTCTAACCTGTTGCCT (site GCCATTACTAG)”, with 0.191.
Then “GCCCGAACTTGGGTTCTAACCTGTTGCCT (site GCACGAACTAG)”, with 0.141.
Consider “GCCCGAACTTGGGTTCTAACCTGTTGCCT (site GCCCGAACTAG)”, for which the “recombinant barcode read abundance (log10)” value was determined as 0.998.
As to “GCCCGAACTTGGGTTCTAACCTGTTGCCT (site GCGCGAACTAG)”, the “recombinant barcode read abundance (log10)” value turned out to be 0.0267.
The figure for “GCCCGAACTTGGGTTCTAACCTGTTGCCT (site GCTCGAACTAG)” is 0.101; for “GCCCGATCTTGGGTTCTAACCTGTTGCCT (site GCCCAATCTAG)” it is 0.743.
For the sequence “GCCCGATCTTGGGTTCTAACCTGTTGCCT (site GCCCCATCTAG)”, the “recombinant barcode read abundance (log10)” value was 0.179.
The figure for “GCCCGATCTTGGGTTCTAACCTGTTGCCT (site GCCCGATCTAG)” is 1.42; for “GCCCGATCTTGGGTTCTAACCTGTTGCCT (site GCCCTATCTAG)” it is 0.0709; for “GCCCGGGCTTGGGTTCTAACCTGTTGCGG (site GCCCGGGCTCC)” it is 2.39.
Turning to “GCCCGGGCTTGGGTTCTAACCTGTTGCGG (site GGCCGGGCTCC)”, the “recombinant barcode read abundance (log10)” value was found to be 0.022.
Then “GCCCTATCTTGGGTTCTAACCTGTTGCCT (site GCCCAATCTAG)”, with 0.0981; and “GCCCTATCTTGGGTTCTAACCTGTTGCCT (site GCCCCATCTAG)”, with 0.107.
For “GCCCTATCTTGGGTTCTAACCTGTTGCCT (site GCCCGATCTAG)”, the “recombinant barcode read abundance (log10)” value turned out to be 0.0182.
For “GCCCTATCTTGGGTTCTAACCTGTTGCCT (site GCCCTATCTAG)”, the “recombinant barcode read abundance (log10)” value was 1.35.
For “GCCCTGCCTTGGGTTCTAACCTGTTGCGT (site GCCCTGCCTAC)”, the “recombinant barcode read abundance (log10)” value was 2.62.
With “GCCCTGCCTTGGGTTCTAACCTGTTGCGT (site TACCTGCCTAC)”, the “recombinant barcode read abundance (log10)” value is 0.133.
Take “GCCGAAACTTGGGTTCTAACCTGTTGCCT (site GCCGAAACTAG)”: the “recombinant barcode read abundance (log10)” value came to 0.0181.
In the case of “GCCGAAACTTGGGTTCTAACCTGTTGCCT (site GCCGACACTAG)”, the “recombinant barcode read abundance (log10)” value is 0.0951.
Then “GCCGAAACTTGGGTTCTAACCTGTTGCCT (site GCCGAGACTAG)”, with 0.052; and “GCCGAAACTTGGGTTCTAACCTGTTGCCT (site GCCGATACTAG)”, with 0.311.
Then “GCCGAGCCTTGGGTTCTAACCTGTTGCCA (site GCCGAGCCTTG)”, with 0.21.
In the case of “GCCGAGCCTTGGGTTCTAACCTGTTGCCA (site TAGTGAACTGT)”, the “recombinant barcode read abundance (log10)” value was found to be 0.432.
The figure for “GCCGAGGCTTGGGTTCTAACCTGTTGCTG (site GCCGAGGCTCA)” is 0.439; for “GCCGAGGCTTGGGTTCTAACCTGTTGCTG (site GTCTAGGCTCA)” it is 0.326; for “GCCGAGTCTTGGGTTCTAACCTGTTGCAC (site GCCGAGTCTAG)” it is 0.288.
Then “GCCGAGTCTTGGGTTCTAACCTGTTGCAC (site GCCGAGTCTGT)”, with 1.25; and “GCCGAGTCTTGGGTTCTAACCTGTTGCTA (site GCCGAGTCTAA)”, with 0.0891.
The figure for “GCCGAGTCTTGGGTTCTAACCTGTTGCTA (site GCCGAGTCTCA)” is 0.357; for “GCCGAGTCTTGGGTTCTAACCTGTTGCTA (site GCCGAGTCTGA)” it is 0.0866; for “GCCGAGTCTTGGGTTCTAACCTGTTGCTA (site GCCGAGTCTTA)” it is 0.411.
Take “GCCGATACTTGGGTTCTAACCTGTTGCCT (site GCCGAAACTAG)”: the “recombinant barcode read abundance (log10)” value is 0.
Consider “GCCGATACTTGGGTTCTAACCTGTTGCCT (site GCCGACACTAG)”, for which the “recombinant barcode read abundance (log10)” value worked out at 0.171.
Consider “GCCGATACTTGGGTTCTAACCTGTTGCCT (site GCCGAGACTAG)”, for which the “recombinant barcode read abundance (log10)” value was 0.197.
Then “GCCGATACTTGGGTTCTAACCTGTTGCCT (site GCCGATACTAG)”, with 0.113.
Take “GCCGGGCCTTGGGTTCTAACCTGTTGCCT (site GCCGGGCCTAG)”: the “recombinant barcode read abundance (log10)” value turned out to be 0.265.
As for “GCCGGGCCTTGGGTTCTAACCTGTTGCCT (site GCTGCGCCTAG)”, the “recombinant barcode read abundance (log10)” value is 0.0616.
As for “GCCGGGGCTTGGGTTCTAACCTGTTGCCG (site GCCAGGGCTCG)”, the “recombinant barcode read abundance (log10)” value is 0.262.
In the case of “GCCGGGGCTTGGGTTCTAACCTGTTGCCG (site GCCCGGGCTCG)”, the “recombinant barcode read abundance (log10)” value amounted to 0.452.
The figure for “GCCGGGGCTTGGGTTCTAACCTGTTGCCG (site GCCGGGGCTCG)” is 0.186; for “GCCGGGGCTTGGGTTCTAACCTGTTGCCG (site GCCTGGGCTCG)” it is 0.258.
Turning to “GCCGTCCCTTGGGTTCTAACCTGTTGCTA (site GCCGTCCCTTA)”, the “recombinant barcode read abundance (log10)” value was determined as 0.202.
Consider “GCCGTCCCTTGGGTTCTAACCTGTTGCTA (site GTCGTCCCTTG)”, for which the “recombinant barcode read abundance (log10)” value was 0.106.
Then “GCCGTCTCTTGGGTTCTAACCTGTTGCCT (site GCCATCTCTAG)”, with 0.114; and “GCCGTCTCTTGGGTTCTAACCTGTTGCCT (site GCCGTCTCTAG)”, with 0.135; and “GCCTCGCCTTGGGTTCTAACCTGTTGCAG (site GCCACGCCTCT)”, with 0.341.
With “GCCTCGCCTTGGGTTCTAACCTGTTGCAG (site GCCCCGCCTCT)”, the “recombinant barcode read abundance (log10)” value was determined as 0.133.
Then “GCCTCGCCTTGGGTTCTAACCTGTTGCAG (site GCCGCGCCTCT)”, with 0.326; and “GCCTCGCCTTGGGTTCTAACCTGTTGCAG (site GCCTCGCCTCT)”, with 0.229.
Turning to “GCCTGCCCTTGGGTTCTAACCTGTTGCTG (site GCCTGCCCTCA)”, the “recombinant barcode read abundance (log10)” value stood at 1.51.
On to “GCCTGCCCTTGGGTTCTAACCTGTTGCTG (site TGGGTGACTAG)”, for which the “recombinant barcode read abundance (log10)” value turned out to be 0.0502.
The figure for “GCGAAGTCTTGGGTTCTAACCTGTTGCTT (site GCGAACACTAA)” is 0.0375.
